Drawing on PubChem BioAssay AID2060501 (Molecular Pharmacology Branch, DTP, NCI, 2025), this text covers viability, T/C for three molecules.
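Further: spheroids exposed to compounds for 7 days before readout; percent of vehicle DMSO control viability with 100% = untreated-like growth.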

The subject of the first assay is 282377-053-R-J1-PDC complex spheroids, viability. The assay is described as follows: Anticancer human tumor 282377-053-R-J1-PDC patient-derived colon adenocarcinoma cell line growth inhibition [GQUAD]. The settings on record: second compound 0.316 µM; first compound 1 µM; active compounds read low. The source says:
DNA G-quadruplex Stabilizer Agents in Combinations in Complex Spheroids
A high-throughput screen of multi-cell type tumor spheroids was designed to identify active combinations of DNA G-quadruplex stabilizer agents and targeted small molecules. Complex spheroids include a stromal component modeled by human endothelial cells (HUVEC) and fibroblasts modeled by human mesenchymal stem cells (MSCs). The concentration ranges selected for each drug and investigational agent were based upon clinically achievable concentrations if the clinical Cmax of the agent was known.
Compounds. The drugs and investigational agents: pidnarulex (CX-5461; NSC782164), APTO-253 (NSC789042), BRACO-19 (NSC847499), peposertib (NSC802822), ceralasertib (NSC780249), elimusertib (NSC800525), camonsertib (NSC841442), AZD-1390 (NSC803789), olaparib (NSC753686), talazoparib (NSC767125), ART-558 (NSC835418), sotorasib (NSC818433), MRTX-1133 (NSC836407), SN-38 (NSC673596), topotecan (NSC609699), etoposide (NSC141540), doxorubicin (NSC123127), gemcitabine (NSC613327), 5-fluorouracil (NSC19893), paclitaxel (NSC125973), vemurafenib (NSC761431), panobinostat (NSC761190), R-306465 (JNJ-16241199; NSC773264), adavosertib (NSC754352), TP-3654 (NSC805149), carboplatin (NSC241240), KSQ-4279 (NSC840948), and staurosporine (NSC755774) were obtained from the National Cancer Institute (NCI) Developmental Therapeutics Program Chemical Repository (34). The FDA-approved anticancer drug set is available from the NCI Developmental Therapeutics Program. […] The stock solutions were prepared in dimethyl sulfoxide (DMSO, Sigma-Aldrich, St. Louis, MO, cat. D2650) at 800-fold the tested concentration and stored at -70 degrees C prior to their use. All drugs and investigational agents were tested over a range starting from a high concentration at or near the clinical Cmax and decreasing in half-log increments. If the clinical Cmax for an agent had not been determined, the highest concentration tested was 10 microM.
2.3 Cell Culture. All cells were maintained in an incubator at 37 degrees C and 5% CO2 with 95% humidity. The PDC lines were cultured according to standard operating procedures established by the NCI PDMR. All PDCs were thawed and cultured in Matrigel-coated flasks prepared with a working solution of 1X Ham's F-12 nutrient mix, without supplementation (Invitrogen, cat. 11765054), 100 U/mL penicillin-streptomycin (Invitrogen, cat. 15140122), and 2.5% Matrigel (Corning Inc., cat. 354248) for the first three passages. The 857933-349-R-J2-PDC line was cultured in 6C/Colon 1B media, which includes advanced DMEM/F-12 (Thermo Fisher Scientific, cat. 12634028), 10 mM HEPES (Thermo Fisher Scientific, cat. 15630080), 1X GlutaMAX supplement (Thermo Fisher Scientific, cat. 35050061), 0.1 mg/mL primocin (InvivoGen, cat. ant-pm-2), 10% defined fetal bovine serum, heat inactivated (HyClone Laboratories Inc., cat. SH30070.03HI), 50% L-WRN conditioned media (ATCC, cat. CRL-3276), 1.25 mM N-Acetyl-L-cysteine (Sigma-Aldrich, cat. A9165), 10 mM nicotinamide (Sigma-Aldrich, cat. N0636), 1X B-27 supplement (Thermo Fisher Scientific, cat. 17504044), 1X N-2 supplement (Thermo Fisher Scientific, cat. 17502048), 10 microM Y-27632 dihydrochloride (Tocris Bioscience, cat. 1254), and 50 ng/mL human EGF recombinant protein (Thermo Fisher Scientific, cat. PHG0311). The 485176-168-R4-J1-PDC line was cultured in Panc media, which includes all 6C/Colon 1B media components plus 100 ng/mL human FGF-10 (Thermo Fisher Scientific, cat. 100-26), 500 nM SB-431542 (Selleckchem, cat. S1067), and gastrin (Tocris, cat. 3006).
[…]
The viability, T/C is the result in the treated group divided by that in the control group, in per cent. As to `C#Cc1c(F)ccc2cc(O)cc(-c3ncc4c(N5CC6CCC(C5)N6)nc(OCC56CCCN5CC(F)C6)nc4c3F)c12` (stereo not given) + CN(C)c1ccc(Nc2c3ccc(NC(=O)CCN4CCCC4)cc3nc3cc(NC(=O)CCN4CCCC4)ccc23)cc1, the viability, T/C is 79.9%.

For the molecule `C=CC(=O)N1CCN(c2nc(=O)n(-c3c(C)ccnc3C(C)C)c3nc(-c4c(O)cccc4F)c(F)cc23)C(C)C1` (stereo not given) + CN(C)c1ccc(Nc2c3ccc(NC(=O)CCN4CCCC4)cc3nc3cc(NC(=O)CCN4CCCC4)ccc23)cc1, the viability, T/C was 101%.

For `COc1cccc2c1C(=O)c1c(O)c3c(c(O)c1C2=O)CC(O)(C(=O)CO)CC3OC1CC(N)C(O)C(C)O1` (stereo not given) + CN(C)c1ccc(Nc2c3ccc(NC(=O)CCN4CCCC4)cc3nc3cc(NC(=O)CCN4CCCC4)ccc23)cc1, the viability, T/C was 73.7%.

The assay is the same for the next values; noted with them: second compound 0.316 µM; first compound 3.16 µM; active compounds read low.
On to `C#Cc1c(F)ccc2cc(O)cc(-c3ncc4c(N5CC6CCC(C5)N6)nc(OCC56CCCN5CC(F)C6)nc4c3F)c12` (stereo not given) + CN(C)c1ccc(Nc2c3ccc(NC(=O)CCN4CCCC4)cc3nc3cc(NC(=O)CCN4CCCC4)ccc23)cc1, for which the viability, T/C was 73.1%.

Take `C=CC(=O)N1CCN(c2nc(=O)n(-c3c(C)ccnc3C(C)C)c3nc(-c4c(O)cccc4F)c(F)cc23)C(C)C1` (stereo not given) + CN(C)c1ccc(Nc2c3ccc(NC(=O)CCN4CCCC4)cc3nc3cc(NC(=O)CCN4CCCC4)ccc23)cc1: the viability, T/C is 103%.

Regarding `COc1cccc2c1C(=O)c1c(O)c3c(c(O)c1C2=O)CC(O)(C(=O)CO)CC3OC1CC(N)C(O)C(C)O1` (stereo not given) + CN(C)c1ccc(Nc2c3ccc(NC(=O)CCN4CCCC4)cc3nc3cc(NC(=O)CCN4CCCC4)ccc23)cc1, the viability, T/C was 32.4%.

Still in this assay, the particulars now being: second compound 0.316 µM; first compound 10 µM; active compounds read low.
In the case of `C#Cc1c(F)ccc2cc(O)cc(-c3ncc4c(N5CC6CCC(C5)N6)nc(OCC56CCCN5CC(F)C6)nc4c3F)c12` (stereo not given) + CN(C)c1ccc(Nc2c3ccc(NC(=O)CCN4CCCC4)cc3nc3cc(NC(=O)CCN4CCCC4)ccc23)cc1, the viability, T/C was 74%.

For the molecule `C=CC(=O)N1CCN(c2nc(=O)n(-c3c(C)ccnc3C(C)C)c3nc(-c4c(O)cccc4F)c(F)cc23)C(C)C1` (stereo not given) + CN(C)c1ccc(Nc2c3ccc(NC(=O)CCN4CCCC4)cc3nc3cc(NC(=O)CCN4CCCC4)ccc23)cc1, the viability, T/C is 72.4%.

With `COc1cccc2c1C(=O)c1c(O)c3c(c(O)c1C2=O)CC(O)(C(=O)CO)CC3OC1CC(N)C(O)C(C)O1` (stereo not given) + CN(C)c1ccc(Nc2c3ccc(NC(=O)CCN4CCCC4)cc3nc3cc(NC(=O)CCN4CCCC4)ccc23)cc1, the viability, T/C is 2.16%.

The assay is the same for the next values; noted with them: second compound 1 µM; first compound 0.0316 µM; active compounds read low.
`C#Cc1c(F)ccc2cc(O)cc(-c3ncc4c(N5CC6CCC(C5)N6)nc(OCC56CCCN5CC(F)C6)nc4c3F)c12` (stereo not given) + CN(C)c1ccc(Nc2c3ccc(NC(=O)CCN4CCCC4)cc3nc3cc(NC(=O)CCN4CCCC4)ccc23)cc1: the viability, T/C was 87.5%.

Turning to `C=CC(=O)N1CCN(c2nc(=O)n(-c3c(C)ccnc3C(C)C)c3nc(-c4c(O)cccc4F)c(F)cc23)C(C)C1` (stereo not given) + CN(C)c1ccc(Nc2c3ccc(NC(=O)CCN4CCCC4)cc3nc3cc(NC(=O)CCN4CCCC4)ccc23)cc1, the viability, T/C is 112%.

Consider `COc1cccc2c1C(=O)c1c(O)c3c(c(O)c1C2=O)CC(O)(C(=O)CO)CC3OC1CC(N)C(O)C(C)O1` (stereo not given) + CN(C)c1ccc(Nc2c3ccc(NC(=O)CCN4CCCC4)cc3nc3cc(NC(=O)CCN4CCCC4)ccc23)cc1, for which the viability, T/C was 85%.

Staying with this assay, now noted: second compound 1 µM; first compound 0.1 µM; active compounds read low.
On to `C#Cc1c(F)ccc2cc(O)cc(-c3ncc4c(N5CC6CCC(C5)N6)nc(OCC56CCCN5CC(F)C6)nc4c3F)c12` (stereo not given) + CN(C)c1ccc(Nc2c3ccc(NC(=O)CCN4CCCC4)cc3nc3cc(NC(=O)CCN4CCCC4)ccc23)cc1, for which the viability, T/C is 78.1%.

For `C=CC(=O)N1CCN(c2nc(=O)n(-c3c(C)ccnc3C(C)C)c3nc(-c4c(O)cccc4F)c(F)cc23)C(C)C1` (stereo not given) + CN(C)c1ccc(Nc2c3ccc(NC(=O)CCN4CCCC4)cc3nc3cc(NC(=O)CCN4CCCC4)ccc23)cc1, the viability, T/C was 99.5%.

Consider `COc1cccc2c1C(=O)c1c(O)c3c(c(O)c1C2=O)CC(O)(C(=O)CO)CC3OC1CC(N)C(O)C(C)O1` (stereo not given) + CN(C)c1ccc(Nc2c3ccc(NC(=O)CCN4CCCC4)cc3nc3cc(NC(=O)CCN4CCCC4)ccc23)cc1, for which the viability, T/C was 94.2%.
